Measured values as given in patent US7576082B2, “Oxindole derivatives” (Hoffman-La Roche Inc., priority 2005, dated 2009).

These compounds were tested against interaction between p53 and MDM2 proteins (Homo sapiens, UniProt Q00987) (assay: HTRF assay of inhibition of the interaction between p53 and MDM2 proteins (GST-MDM2 / biotinylated p53 peptide)). Conditions: recombinant GST-tagged MDM2, biotinylated p53 peptide, 37° C. for 1 h.
Assay type: binding
Procedure: […], the ability of the compounds to inhibit the interaction between p53 and MDM2 proteins was measured.
The ability of the compounds to inhibit the interaction between p53 and MDM2 proteins was measured by an HTRF (homogeneous time-resolved fluorescence) assay in which recombinant GST-tagged MDM2 binds to a peptide that resembles the MDM2-interacting region of p53 (Lane et al.). Binding of GST-MDM2 protein and p53-peptide (biotinylated on its N-terminal end) is registered by the FRET (fluorescence resonance energy transfer) between Europium (Eu)-labeled anti-GST antibody and streptavidin-conjugated Allophycocyanin (APC).
Test is performed in black flat-bottom 384-well plates (Costar) in a total volume of 40 uL containing: 90 nM biotinylate peptide, 160 ng/ml GST-MDM2, 20 nM streptavidin-APC (PerkinElmerWallac), 2 nM Eu-labeled anti-GST-antibody (PerkinElmerWallac), 0.2% bovine serum albumin (BSA), 1 mM dithiothreitol (DTT) and 20 mM Tris-borate saline (TBS) buffer as follows: Add 10 uL of GST-MDM2 (640 ng/ml working solution) in reaction buffer to each well. Add 10 uL diluted compounds (1:5 dilution in reaction buffer) to each well, mix by shaking. Add 20 uL biotinylated p53 peptide (180 nM working solution) in reaction buffer to each well and mix on shaker. Incubate at 37° C. for 1 h. Add 20 uL streptavidin-APC and Eu-anti-GST antibody mixture (6 nM Eu-anti-GST and 60 nM streptavidin-APC working solution) in TBS buffer with 0.2% BSA, shake at room temperature for 30 minutes and read using a TRF-capable plate reader at 665 and 615 nm (Victor 5, Perkin ElmerWallac). If not specified, the reagents were purchased from Sigma Chemical Co.

Sequence of interaction between p53 and MDM2 proteins (Q00987 whole entry): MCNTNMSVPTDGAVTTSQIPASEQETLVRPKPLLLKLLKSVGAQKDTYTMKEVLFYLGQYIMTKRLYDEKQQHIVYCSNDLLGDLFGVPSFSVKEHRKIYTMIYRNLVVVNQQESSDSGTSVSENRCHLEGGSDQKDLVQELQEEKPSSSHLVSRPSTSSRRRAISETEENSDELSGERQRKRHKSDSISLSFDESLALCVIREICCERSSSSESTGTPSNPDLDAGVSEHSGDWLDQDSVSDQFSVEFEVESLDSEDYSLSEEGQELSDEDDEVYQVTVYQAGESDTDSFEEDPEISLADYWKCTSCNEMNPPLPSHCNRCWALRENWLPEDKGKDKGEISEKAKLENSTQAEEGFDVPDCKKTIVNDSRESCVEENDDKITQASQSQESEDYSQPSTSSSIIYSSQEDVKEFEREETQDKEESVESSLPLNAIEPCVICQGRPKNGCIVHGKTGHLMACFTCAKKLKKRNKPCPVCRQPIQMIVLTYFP

IC50 | SMILES
280 nM | COc1cccc([C@]2(Cc3cccc(Cl)c3)C(=O)Nc3cc(Cl)ccc32)c1 (single isomer, unassigned) [Example 13]
9490 nM | COc1cccc(C2(Cc3ccccc3)C(=O)Nc3cc(Cl)ccc32)c1 (racemic) [Example 6C, rac-3-Benzyl-6-chloro-3-(3-methoxy-phenyl)-1,3-dihydro-indol-2-one]
460 nM | COc1cccc(C2(Cc3cccc(Cl)c3)C(=O)Nc3cc(Cl)ccc32)c1 (racemic) [Example 9, rac-6-Chloro-3-(3-chloro-benzyl)-3-(3-methoxy-phenyl)-1,3-dihydro-indol-2-one]
5380 nM | O=C1Nc2cc(Cl)ccc2C1(Cc1ccccc1)C1CCCC1 (racemic) [Example 3C, rac-3-Benzyl-6-chloro-3-cyclopentyl-1,3-dihydro-indol-2-one]
